# Reference: patent US20200254065A1, “LONG-ACTING GLP-2 ANALOGS” (OPKO Biologics Ltd., priority 2019, published 2020)
# Square brackets hold non-standard residues; d marks the D form. Ends that are not written are not given here. Peptide text beside a SMILES is read from it. Nle = CCCC[C@H](N)C(=O)O
# T1: GLP-2 receptor (Homo sapiens, UniProt O95838)
# T1 sequence (O95838 1-553): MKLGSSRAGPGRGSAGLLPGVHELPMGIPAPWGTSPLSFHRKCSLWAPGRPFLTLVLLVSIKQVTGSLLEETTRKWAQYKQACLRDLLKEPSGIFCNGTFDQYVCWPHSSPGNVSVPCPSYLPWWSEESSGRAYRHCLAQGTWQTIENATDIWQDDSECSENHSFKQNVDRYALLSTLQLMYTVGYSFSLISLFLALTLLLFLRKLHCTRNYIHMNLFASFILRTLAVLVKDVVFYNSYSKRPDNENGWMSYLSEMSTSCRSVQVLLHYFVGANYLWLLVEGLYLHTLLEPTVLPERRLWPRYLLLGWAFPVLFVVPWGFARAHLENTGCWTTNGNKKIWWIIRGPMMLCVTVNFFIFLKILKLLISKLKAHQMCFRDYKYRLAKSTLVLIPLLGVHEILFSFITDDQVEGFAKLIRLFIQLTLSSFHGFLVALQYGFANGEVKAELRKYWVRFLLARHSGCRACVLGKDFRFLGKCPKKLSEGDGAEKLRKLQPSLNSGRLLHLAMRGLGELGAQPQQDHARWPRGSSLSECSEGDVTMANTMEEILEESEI
# T2: GLP-2 receptor (UniProt O95838 1-553, limits assumed)
# T2 sequence (looked up): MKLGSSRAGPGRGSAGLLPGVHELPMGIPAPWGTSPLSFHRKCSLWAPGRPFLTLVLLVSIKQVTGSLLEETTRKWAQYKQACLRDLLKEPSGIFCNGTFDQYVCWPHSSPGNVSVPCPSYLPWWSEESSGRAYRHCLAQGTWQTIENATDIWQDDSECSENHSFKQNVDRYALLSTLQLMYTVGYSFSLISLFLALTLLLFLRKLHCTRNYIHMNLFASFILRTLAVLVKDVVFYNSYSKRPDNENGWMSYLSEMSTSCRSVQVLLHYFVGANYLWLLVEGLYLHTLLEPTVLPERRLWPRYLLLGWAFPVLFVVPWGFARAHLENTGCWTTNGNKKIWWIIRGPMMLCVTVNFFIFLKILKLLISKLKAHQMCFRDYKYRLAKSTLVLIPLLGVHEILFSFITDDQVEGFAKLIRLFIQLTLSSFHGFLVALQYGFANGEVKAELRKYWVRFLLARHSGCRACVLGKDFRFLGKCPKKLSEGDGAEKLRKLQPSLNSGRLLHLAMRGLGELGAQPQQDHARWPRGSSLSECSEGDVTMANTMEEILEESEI
# Legend:
# [1] = Pharmacokinetics of modified GLP-2 variants in rats; format: in vivo; settings: rat, serum, peptide dose 15 mg/kg
# GLP-2 receptor [2] = target: T1, GLP-2 receptor; test: GLP-2 receptor Cell Based Assay (CBA); settings: Table 7
# Description: Evaluation of in vitro binding affinity of the different peptides was assessed by using Cell Based Assay (CBA) in the presence of escalating doses of the different peptides.
# small intestine = test: Intestine weight model in rats; format: in vivo, SD rats; settings: modified peptides; two injections on days 1 & 3 at 1 mg/kg; intestine weight on day 6
# Description: In the pharmacology study, the conjugates were injected subcutaneously twice, on days 1 and 3 at 1 mg/kg (peptide dose) and intestine weight was performed on day 6. In addition to the PEGylated conjugates, GLP-2-Gly2 was injected at the same dose and regimen for comparison. The average of the intestine weight of each group was compared to that of the vehicle group.
# In a different study, several of the PEGylated teduglutide were injected as a single dose at 1 mg/kg and the intestine weight performed on day 6.
# Pharmacology and pharmacokinetic studies were performed with the most promising GLP-2 variants to evaluate their efficacy and longevity, respectively. The intestine weight model in rats was conducted to evaluate efficacy, by measuring percent increase of the intestine weight of treated animals over the vehicle group. In this study, the peptides were injected twice, on days 1 and 3 at 1 mg/kg and the intestine weight was conducted on day 6.
# PEG20-FMS-V6, PEG20-Fmoc-V6 and PEG40-FMS-V6 were injected once at 1 mg/kg dose on day 1, while group D was also injected twice on days 1 & 3 at 1 mg/kg. The intestine weight was performed on day 6.
# Three different reversible PEGylated GLP-2 variants using mutated peptide #4 were injected at 2 mg/kg (peptide dose), once every 6 days for 12 days. On the 12th day the intestine was weighted and compared to the control group. PEG30-FMS-V4 was injected at 0.5 mg/kg as well to evaluate the efficacy dose range.
# In addition to PEG30-FMS-V4 and PEG30-Fmoc-V4 that have been pharmacology evaluated by small intestinal weight evaluation (As shown in Example 5), four other reversible PEGylated variant 4 (“V4”) conjugates and two reversible linker-V4 conjugates were synthesized. All the above were injected to 6 normal SD rats/group once at 2 mg/kg (peptide dose), while on the 6th day, animals were scarified, and the small intestine was weighted followed by histopathology evaluation. […] Therefore, slices from three areas of the intestine (duodenum, jejunum and ilium) were stained with hematoxylin and eosin and at least 7 Crypts+Villi length/slice were measured. The averaged Villi+Crypt length of each treatment group (n=6) was compared to the vehicle group (negative control) and calculated as percentage increase over vehicle.
# Additional studies were conducted to evaluate the efficacy of the V4 peptide and the reversible MAL-FMS-V4. The long acting effect of V4 and the conjugates were evaluated at Day 6 and Day 10 following treatment (Study reference 15203). All test groups (n=9) were injected SC with 2 mg/kg peptide content at Day 1. At Days 6 and 10, animals were sacrificed and the small intestine underwent histopathology evaluation (6 animals for Day 6, 3 animals for Day 10). FIGS. 12 and 13 show the pharmacology effect of different V4 conjugates and Apraglutide and Glepaglutide as measured by the percent increase of small intestine weight and crypts plus villi length over vehicle, respectively.
# To further evaluate the pharmacology efficacy of V4 and Cys-FMS-V4, an experiment was performed to test their acute and prolonged effect on the small intestine (Study reference 15205). In addition, V4 and Cys-FMS-V4 were administrated as a single SC injection on Day 1 at 3 different doses (0.5, 2.0 or 8.0 mg/kg peptide content, 6 rats per group) to assess the dose dependence effect. The pharmacological effect on small intestine weight and villi plus crypts length was measured at Days 3, 7 and 14, and the results are presented in FIGS. 15 and 16. […] It should be noted that this acute response was higher for V4 compared to Cys-FMS-V4 at all 3 dose levels.
# [3] = Stability of GLP-2 analogues on incubation at 37° C. (appearance, O.D. reading, RP-HPLC); format: physicochemical; settings: following 48 h incubation at 37° C.; for Stability via RP-HPLC main peak: change of main peak
# Description: The GLP-2 analogues were tested for stability via appearance, O.D. reading (A.280, and A.325) and RP-HPLC (purity, and peak area) following t=0, 1 day, and 48 h incubation at 37° C.
# [4] = Solubility and stability in different buffer systems, concentrations, incubation and freeze-thaw; format: physicochemical; settings: Histidine and NaPi, pH 6.8 to 7.5; 1-10 mg/mL; up to 3 days at 37° C.; up to three freeze-thaw cycles
# GLP-2 receptor [5] = target: T2, GLP-2 receptor; test: cell-based or functional assay
# GLP-2 receptor [6] = target: GLP-2 receptor (UniProt O95838); test: cell-based or functional assay
Molecule,half-life [1],EC50 Ratio to Teduglutide (GLP-2 receptor [2]),Increase of intestine weight over vehicle (%) (small intestine),Solubility via appearance [3],Stability via RP-HPLC main peak [3],"CMC perspective, combining purity and solubility [4]",also measured
CCCC[C@H](NC(=O)[C@H](CCC(=O)O)NC(=O)[C@H](CC(=O)O)NC(=O)[C@H](CO)NC(=O)[C@H](Cc1ccccc1)NC(=O)[C@H](CO)NC(=O)CNC(=O)[C@H](CCC(=O)O)NC(=O)CNC(=O)[C@@H](N)Cc1c[nH]cn1)C(=O)N[C@H](Cc1c[nH]cn1)C(=O)N[C@H](C(=O)N[C@H](C(=O)N[C@@H](CC(C)C)C(=O)N[C@@H](CC(=O)O)C(=O)N[C@@H](CC(N)=O)C(=O)N[C@@H](CC(C)C)C(=O)N[C@@H](C)C(=O)N[C@@H](C)C(=O)N[C@@H](CCCNC(=N)N)C(=O)N[C@@H](CC(=O)O)C(=O)N[C@@H](Cc1ccccc1)C(=O)N[C@H](C(=O)N[C@@H](CC(N)=O)C(=O)N[C@@H](Cc1c[nH]c2ccccc12)C(=O)N[C@@H](CC(C)C)C(=O)N[C@H](C(=O)N[C@@H](CCC(N)=O)C(=O)N[C@H](C(=O)N[C@@H](CCCCN)C(=O)N[C@H](C(=O)N[C@H](C(=O)N[C@@H](CC(=O)O)C(N)=O)[C@@H](C)O)[C@@H](C)CC)[C@@H](C)O)[C@@H](C)CC)[C@@H](C)CC)[C@@H](C)CC)[C@@H](C)O [Variant 3] (H-HGEGSFSDE[Nle][dH]TILDNLAARDFINWLIQTKITD-NH2),1.9 h,2.5,4%,V3: clear,V3: −4%,–,–
CCCC[C@H](NC(=O)[C@H](CCC(=O)O)NC(=O)[C@H](CC(=O)O)NC(=O)[C@H](CO)NC(=O)[C@H](Cc1ccccc1)NC(=O)[C@H](CO)NC(=O)CNC(=O)[C@H](CCC(=O)O)NC(=O)CNC(=O)[C@@H](N)Cc1c[nH]cn1)C(=O)N[C@@H](CC(N)=O)C(=O)N[C@H](C(=O)N[C@H](C(=O)N[C@@H](CC(C)C)C(=O)N[C@@H](CC(=O)O)C(=O)N[C@@H](Cc1ccc(O)cc1)C(=O)N[C@@H](CC(C)C)C(=O)N[C@@H](C)C(=O)N[C@@H](C)C(=O)N[C@@H](CCCNC(=N)N)C(=O)N[C@@H](CC(=O)O)C(=O)N[C@@H](Cc1ccccc1)C(=O)N[C@H](C(=O)N[C@@H](CC(N)=O)C(=O)N[C@@H](Cc1c[nH]c2ccccc12)C(=O)N[C@@H](CC(C)C)C(=O)N[C@H](C(=O)N[C@@H](CCC(N)=O)C(=O)N[C@H](C(=O)N[C@@H](CCCCN)C(=O)N[C@H](C(=O)N[C@H](C(=O)N[C@@H](CC(=O)O)C(N)=O)[C@@H](C)O)[C@@H](C)CC)[C@@H](C)O)[C@@H](C)CC)[C@@H](C)CC)[C@@H](C)CC)[C@@H](C)O [Variant 5] (H-HGEGSFSDE[Nle]NTILDYLAARDFINWLIQTKITD-NH2),6.5 h,2.4,10%,V5: clear,–,–,–
CCCC[C@H](NC(=O)[C@H](CCC(=O)O)NC(=O)[C@H](CC(=O)O)NC(=O)[C@H](CO)NC(=O)[C@H](Cc1ccccc1)NC(=O)[C@H](CO)NC(=O)CNC(=O)[C@H](CCC(=O)O)NC(=O)CNC(=O)[C@@H](N)Cc1c[nH]cn1)C(=O)N[C@@H](CC(N)=O)C(=O)N[C@H](C(=O)N[C@H](C(=O)N[C@@H](CC(C)C)C(=O)N[C@@H](CC(=O)O)C(=O)N[C@@H](CC(C)C)C(=O)N[C@@H](CC(C)C)C(=O)N[C@@H](C)C(=O)N[C@@H](C)C(=O)N[C@@H](CCCNC(=N)N)C(=O)N[C@@H](CC(=O)O)C(=O)N[C@@H](Cc1ccccc1)C(=O)N[C@H](C(=O)N[C@@H](CC(N)=O)C(=O)N[C@@H](Cc1c[nH]c2ccccc12)C(=O)N[C@@H](CC(C)C)C(=O)N[C@H](C(=O)N[C@@H](CCC(N)=O)C(=O)N[C@H](C(=O)N[C@@H](CCCCN)C(=O)N[C@H](C(=O)N[C@H](C(=O)N[C@@H](CC(=O)O)C(=O)O)[C@@H](C)O)[C@@H](C)CC)[C@@H](C)O)[C@@H](C)CC)[C@@H](C)CC)[C@@H](C)CC)[C@@H](C)O [Variant 6] (H-HGEGSFSDE[Nle]NTILDLLAARDFINWLIQTKITD-OH),12.1 h,3.8,43%,V6: clear,(~1.5%),outperformed the rest of the peptides,–
CCCC[C@H](NC(=O)[C@H](CCC(=O)O)NC(=O)[C@H](CC(=O)O)NC(=O)[C@H](CO)NC(=O)[C@H](Cc1ccccc1)NC(=O)[C@H](CO)NC(=O)CNC(=O)[C@H](CCC(=O)O)NC(=O)CNC(=O)[C@@H](N)Cc1c[nH]cn1)C(=O)N[C@@H](CC(N)=O)C(=O)N[C@H](C(=O)N[C@H](C(=O)N[C@@H](CC(C)C)C(=O)N[C@@H](CC(=O)O)C(=O)N[C@@H](Cc1ccc(O)cc1)C(=O)N[C@@H](CC(C)C)C(=O)N[C@@H](C)C(=O)N[C@@H](C)C(=O)N[C@@H](CCCNC(=N)N)C(=O)N[C@@H](CC(=O)O)C(=O)N[C@@H](Cc1ccccc1)C(=O)N[C@H](C(=O)N[C@@H](CC(N)=O)C(=O)N[C@@H](Cc1c[nH]c2ccccc12)C(=O)N[C@@H](CC(C)C)C(=O)N[C@H](C(=O)N[C@@H](CCC(N)=O)C(=O)N[C@H](C(=O)N[C@@H](CCCCN)C(=O)N[C@H](C(=O)N[C@H](C(=O)N[C@@H](CC(=O)O)C(=O)O)[C@@H](C)O)[C@@H](C)CC)[C@@H](C)O)[C@@H](C)CC)[C@@H](C)CC)[C@@H](C)CC)[C@@H](C)O [Variant 7] (H-HGEGSFSDE[Nle]NTILDYLAARDFINWLIQTKITD-OH),5.8 h,3.0,12%,V7: clear,(no change,outperformed the rest of the peptides,–
GLP2 DiscoverX Kit (peptide),–,–,–,–,–,–,"EC50 (nM) Average, GLP2-receptor CBA, 3 independent assays (GLP-2 receptor [5]): 0.8 nM; EC50 Ratio to Teduglutide, CBA (GLP-2 receptor [5]): 1.8 fold; EC50 Ratio to Teduglutide, GLP2-receptor CBA (GLP-2 receptor [5]): 1.3 fold; EC50 Ratio to Variant 4, GLP2-receptor CBA (GLP-2 receptor [5]): 0.7 fold; EC50 [nM], Cell Based Assay (CBA), cells overexpressing the GLP-2 receptor (GLP-2 receptor [5]): 10.1 nM"
HGEGTFSSELATILDALAARDFIAWLIATKITDKKKKKK-NH2 [Glepaglutide (V10)],–,–,–,–,–,–,"EC50 (nM) Average, GLP2-receptor CBA, 3 independent assays (GLP-2 receptor [6]): 5.4 nM; EC50 Ratio to Teduglutide, GLP2-receptor CBA (GLP-2 receptor [6]): 9.4 fold; EC50 Ratio to Variant 4, GLP2-receptor CBA (GLP-2 receptor [6]): 5.3 fold"
